Source: patent US20040235717A1, “Suppression of androgen receptor transactivation through new pathways to ar and ar coactivators and repressors” (priority 2001, published 2004)
Like-named read-outs stand apart in the source and are kept apart here.

Columns and labels:
[1] = system: wtAR, mtARt877a, PR, VDR, ER transactivation; assay: Steroid receptor transactivation with Smad3 in DU145 cells (wtAR, mtARt877a, PR, VDR, ER); assay type: cell-based, human
[2] = system: wtAR, mtARt877a, PR, VDR, ER transactivation; details: previous reports; cited from earlier work
AR transactivation [3] = assay: AR transactivation with TSA, MMTV-LUC in PC3-AR2 cells; assay type: cell-based
AR transactivation [4] = details: previous reports; cited from earlier work
PSA mRNA expression = PSA mRNA expression in LNCaP cells, Northern blot; assay type: cell-based; details: presence of androgen
AR transactivation [5] = assay: AR transactivation, MMTV-luc / (ARE)4-luc luciferase reporter assay; assay type: cell-based; details: 10 nM DHT; for Repression of AR transactivation: MMTV-luc
AR, ER, GR, PR, RXR = assay: GST pull-down assay of PTEN with nuclear receptors; assay type: binding; details: presence or absence of ligand
Protocol: 27. […] (A) GST or GST-PTEN incubation with the [^35S]-labeled AR, ER, or RXR for 2 h in the presence or absence of the ligand. The bound proteins were analyzed by SDS-PAGE, followed by autoradiography. (B) Representation of PTEN deleted mutants. PTP domain, protein tyrosine phosphates domain; Ty-p, tyrosine phosphorylation domain. (C) [^35S]-labeled AR was incubated with different PTEN deleted mutants. The nearly equivalent aliquots of PTEN deleted mutants used are shown in the right panel. (D) Representation of AR deleted mutants. (E) GST or GST-PTEN was incubated with different AR deleted mutants. (F) The His-AR-N-DBD was incubated with [^35S]-PTEN or [^35S]-PTEN C124S for 2 h. The bound protein was analyzed by the SDS-PAGE, followed by autoradiography.
313. GST fusion proteins were purified as described by the manufacturer (Amersham Pharmacia). The purified GST-proteins were resuspended with 100 μl of interaction buffer (20 mM Tris-HCl/pH 8.0, 60 mM NaCl, 1 mM EDTA, 6 mM MgCl2, 1 mM Dithiothreitol, 8% Glycerol, 0.05% (v/v) NP-40, 1 mM PMSF, and proteinase inhibitors) and mixed with 5 μl of [^35S]-labeled TNT proteins in the presence or absence of 1 μM ligands on a rotating disk at 4° C. for 2 h. After extensive washes with NENT buffer, the bound proteins were separated on an 8% SDS-polyacrylamide gel and visualized by autoradiography.

AR protein levels = assay: AR protein (Western blot) and AR mRNA (Northern blot) levels; assay type: cell-based
AR protein stability = assay: Pulse-chase labeling of AR in COS-1 cells; assay type: cell-based; details: 10 nM DHT
Protocol: 30. […] The cells were harvested for Western blot analysis. […] Western blot analysis was performed and AR and PTEN were detected by AR antibody or PTEN antibody. (C) PTEN-C1 cells were treated with 4 μg/ml Dox in 10% CDS media for 48 h. Total RNA was prepared and Northern blot analysis was performed using [^32P]-dCTP-labeled AR (aa, 1-389) as a probe. (D) COS-1 cells were transfected with AR along with pCDNA3 or PTEN in 10% CDS media for 16 h. […] The cell extracts were immunoprecipitated with AR antibody and subjected to SDS-PAGE followed by autoradiography. Data were from three identical results. (E) COS-1 cells were transfected with AR along with pCDNA3 or dAkt in 10% CDS media for 16 h, pulsed with [^35S]-methionine for 45 min, and then harvested at different chase times as indicated. LY294002 (20 μM) was added 2 h before pulsing with [^35S]-methionine.
317. Pulse-chase experiments were performed as described (Lo et al. (1999) Nat Cell Biol 1, 472-8) with some modifications. Briefly, COS-1 cells were transfected with pSG5-AR in combination with pCDNA3 or pCDNA3 PTEN in 10% CDS media for […]. Cells were grown under serum starvation conditions for 2 h in methionine/cysteine-deficient medium, and then the cells were pulsed for 45 min with 200 μCi/ml [^35S]-methionine/cysteine (NEN). […]

LNCaP cells = assay: PTEN-induced apoptosis in LNCaP cells, TUNEL assay; assay type: cell-based; details: 0.1% CDS media 2 days
U87MG cells = assay: PTEN-induced apoptosis in AR-negative U87MG cells, TUNEL assay; assay type: cell-based
Protocol: (§1) 31. […] (D) The LNCaP cells were transfected with plasmids as indicated for 16 h, and the medium was changed to 0.1% CDS media for 2 days. The cell apoptosis was determined by TUNEL assay (E) The LNCaP cells were transfected with plasmids as indicated for 16 h, harvested, and the cell extracts were subjected to SDS-PAGE. The Akt activity was determined by Western blotting using phospho(S473)-Akt antibody. (F) The U87MG cells were transfected with plasmids as indicated for 16 h, and the medium was changed 0.1% CDS media for 2 days. The cell apoptosis was determined by TUNEL assay. Data for luciferase activity and apoptosis are means±s.d. from three independent experiments.
311. For the apoptosis assay, the cells were transfected with plasmids for 24 h and grown in 0.1% charcol-stripped serum (CDS) media. The apoptosis was determined 2 days after transfection using the TUNEL assay according to the standard procedures (Oncogene). At least 200 cells were scored for each sample and data are means±s.d. from three independent experiments.

AR transactivation [6] = assay: AR transactivation, (ARE)4-luc in CWR22 cells; assay type: cell-based, human
Protocol: as §1
312. […] The cells were lysed and the luciferase activity was detected by the dual luciferase assay according to standard procedures.

AR transactivation [7] = assay: AR transactivation with Smad3/Smad4, CAT reporters in PC3-AR2, PC-3 and LNCaP cells; assay type: cell-based, human; details: PC3-AR2
Protocol: 32. […] LNCaP cell were transfected with Smad3 or Smad4 expression vector instead of PC-3(AR)2 cells in experiments otherwise identical with those in A (B), PC-3(AR)2 cells stably transfected with AR were over-expressed with the indicated amounts of Smad3 or Smad4 or SRC-1. 3 μg of MMTV-CAT was used as a reporter plasmid in all experiments. All values represent the averages±SD of four independent experiments. […] PSA expression level was determined by Northern blotting. The probe was obtained from exon 1 of the PSA gene and labeled with [α-^32P] dCTP. A β-actin probe was used as a control for equivalent mRNA loading. (C, Table 1) The RNA samples from (A) were reverse transcribed to cDNAs and all of the samples were subjected to real-time CR using an ABI Prism 7700 Sequence Detection System (Perkin-Elmer Applied bio systems). PCR was performed using the SYBR Green PCR Core Reagents kit (Perkin-Elmer Applied Bio systems). PSA and β-actin forward, reverse primers concentrations were 2.5 μM. To reduce variability between replicates, PCR premixes which contained all reagents except for total RNA were prepared and aliquoted into 1.5 ml microfuge tubes. Specific PCR amplification products were detected by the fluorescent double-stranded DNA-binding dye SYBR Green core reagent kit. […]
333. […] The CAT activity was visualized and quantitated by STORM 840 (Molecular Dynamics). […]

[8] = system: AR-mediated transactivation; assay: AR-mediated transactivation with TGF-β, MMTV-CAT in DU145 and PC-3 cells; assay type: cell-based, human
Protocol: 19. […] (B). […] In the right panel, a fixed amount of TGF-β1 (10 ng/ml) was added into transfected PC-3 cells with increasing amounts of specific TGF-β1 neutralizing antibody. (C), PC-3(AR)2 cells stably transfected with AR were overexpressed with TGF-β type I (TβRI) or type II (TβRII)receptor or constitutively active TGF-β type I receptor (TβRI-T204D) as indicated. 3 μg of MMTV-CAT or MMTV-Luc was used as a reporter plasmid in all experiments. All values represent the averages+SD of four independent experiments.
284. To study the potential correlation between androgen and TGF-β in prostate cancer cells, the TGF-β responsive prostate cancer DU145 and PC-3 cells were chosen to examine the effect of TGF-β on androgen-induced mouse […] tumor virus (MMTV) promoter activity. […] Similar results were obtained with PC-3 cells, where AR-mediated transactivation was enhanced by TGF-β (FIG. 13B, lane 2 Vs 3-5) and suppressed by the TGF-β specific neutralizing antibody (FIG. 13B, lane 6 vs. 7-10), both in a dose-dependent manner (FIG. 13B).
294. […] The CAT activity was visualized and quantitated by STORM 840 (Molecular Dynamics). […]

[9] = target: T1, interaction between Smad3 and AR (Homo sapiens, UniProt P10275); assay: Mammalian two-hybrid assay Gal4-Smad3 / VP16-AR; assay type: cell-based; details: DU145
T1 construct: expressed in transfected cells; host or cells: DU145
T1 sequence (P10275 whole entry, the tested form may be a part): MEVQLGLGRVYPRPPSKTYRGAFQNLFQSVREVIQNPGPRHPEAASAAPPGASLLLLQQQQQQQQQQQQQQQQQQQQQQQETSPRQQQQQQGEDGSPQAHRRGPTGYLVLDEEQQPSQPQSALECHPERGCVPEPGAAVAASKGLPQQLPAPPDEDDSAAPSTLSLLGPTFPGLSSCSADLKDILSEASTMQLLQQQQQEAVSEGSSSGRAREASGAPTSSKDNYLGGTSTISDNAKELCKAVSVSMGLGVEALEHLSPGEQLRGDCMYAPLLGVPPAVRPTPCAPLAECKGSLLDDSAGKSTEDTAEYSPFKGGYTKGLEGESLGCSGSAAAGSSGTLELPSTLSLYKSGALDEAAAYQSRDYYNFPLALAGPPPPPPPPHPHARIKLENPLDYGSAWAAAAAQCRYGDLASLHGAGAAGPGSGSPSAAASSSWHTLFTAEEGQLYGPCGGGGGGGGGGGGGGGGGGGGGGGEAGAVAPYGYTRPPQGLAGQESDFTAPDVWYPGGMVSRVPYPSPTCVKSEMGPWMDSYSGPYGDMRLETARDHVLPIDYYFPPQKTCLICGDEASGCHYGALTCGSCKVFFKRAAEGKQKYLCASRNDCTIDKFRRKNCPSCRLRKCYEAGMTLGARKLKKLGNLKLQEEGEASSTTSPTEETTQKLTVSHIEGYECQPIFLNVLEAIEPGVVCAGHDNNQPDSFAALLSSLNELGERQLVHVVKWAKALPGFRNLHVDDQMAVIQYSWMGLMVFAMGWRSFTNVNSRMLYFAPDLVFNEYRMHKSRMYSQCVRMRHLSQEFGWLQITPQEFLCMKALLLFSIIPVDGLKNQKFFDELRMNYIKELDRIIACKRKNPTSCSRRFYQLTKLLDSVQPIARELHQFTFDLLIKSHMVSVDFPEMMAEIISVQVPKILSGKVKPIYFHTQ
T1 sequence (P84022 whole entry partner, the tested form may be a part): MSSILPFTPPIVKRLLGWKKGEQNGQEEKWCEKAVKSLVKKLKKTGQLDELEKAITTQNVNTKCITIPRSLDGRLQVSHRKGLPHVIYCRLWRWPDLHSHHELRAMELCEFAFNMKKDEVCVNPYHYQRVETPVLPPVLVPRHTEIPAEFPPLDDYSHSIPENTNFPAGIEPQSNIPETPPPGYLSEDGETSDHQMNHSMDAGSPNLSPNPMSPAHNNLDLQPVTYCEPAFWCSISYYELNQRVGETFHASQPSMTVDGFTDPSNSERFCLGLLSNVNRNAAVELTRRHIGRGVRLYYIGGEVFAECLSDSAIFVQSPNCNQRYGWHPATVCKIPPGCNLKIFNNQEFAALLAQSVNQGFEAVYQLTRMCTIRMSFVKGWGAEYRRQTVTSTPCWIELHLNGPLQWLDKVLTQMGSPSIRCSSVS

C[C@]12CC[C@@H]3c4ccc(O)cc4CC[C@H]3[C@@H]1CC[C@@H]2O [E2, 17-β estradiol]
mtARt877a transactivation response to ligand [1]: responded much better | wtAR transactivation response to ligand ([1]; DHT 10 nM, HF 1 μM, E2 10 nM): respond marginally | Stimulation of LNCaP mtARt877a [2]: stimulated

CC(/C=C/C(=O)NO)=C\[C@@H](C)C(=O)c1ccc(N(C)C)cc1 [TSA, trichostatin A]
Effect on Smad3/Smad4-suppressed AR transactivation (AR transactivation [3]): reverse the Smad3/Smad4-suppressed AR transactivation in a dose-dependent manner | Effect on AR transactivation (AR transactivation [3]; DHT, increasing doses): enhance AR transactivation in a dose-dependent manner | Effect on Smad3/Smad4-suppressed AR transactivation (AR transactivation [3]; listed as trichostatin A): reverse Smad3/Smad4-repressed AR transactivation | Effect on androgen-mediated AR transactivation (AR transactivation [4]): induce the androgen-mediated AR transactivation

CC(=O)[C@H]1CC[C@H]2[C@@H]3CCC4=CC(=O)CC[C@]4(C)[C@H]3CC[C@]12C [progesterone]
Stimulation of LNCaP mtARt877a [2]: stimulated

PTEN: tumor suppressor, phosphatase and tensin homolog deleted on chromosome ten
Effect on androgen-induced PSA mRNA expression (PSA mRNA expression): repressed | Repression of AR transactivation (AR transactivation [5]; AR negative DU145 and PC-3): less than 2 fold | Repression of AR transactivation (AR transactivation [5]; AR-positive LNCaP cells): 4 fold | Effect on AR transactivation (AR transactivation [5]; LNCaP, MMTV-luc and (ARE)4-luc): suppressed AR transactivation in both luciferase reporters at a similar level | Binding to nuclear receptors (AR, ER, GR, PR, RXR): binds preferentially to AR and the ER | AR protein levels (AR protein levels; COS-1 cells, transient transfection): reduce AR protein levels | AR mRNA levels normalized by β-actin (AR protein levels; LNCaP PTEN-C1, Dox-induced PTEN): remained relatively unchanged | Endogenous AR protein levels (AR protein levels; stable LNCaP clones, 4 μg/ml Dox 48 h, 10 nM DHT): reduced endogenous AR protein levels | Reduction of the half-life of newly synthesized [35S]-AR (AR protein stability): 4 to 5 fold | Apoptosis (LNCaP cells): induce apoptosis markedly | Apoptosis (U87MG cells): still able to induce apoptosis | Effect on AR transactivation (AR transactivation [6]): dramatically suppressed AR transactivation

SRC-1: steroid receptor coactivator-1
Effect on AR transactivation in the presence of Smad3 or Smad4 (AR transactivation [7]): increase AR transactivation

TGF-β: transforming growth factor β
Effect on AR-mediated transactivation ([8]; DU145, 10^−8 M DHT, TGF-β1 10 ng/ml): enhanced | Effect on AR-mediated transactivation ([8]; PC-3, dose-dependent): enhanced | Effect on Smad3-AR two-hybrid reporter gene activity ([9]; 10 nM DHT): further induced | Effect on Smad3-AR two-hybrid reporter gene activity ([9]; absence of DHT): cannot exert this effect
